Patent US20230061736A1, “GPR119 AGONISTS” (Kallyope, Inc., priority 2019, published 2023)

Biological target: T1, human GPR119 (hGPR119) (Homo sapiens, UniProt Q8TDV5)
T1 construct: expressed in transfected cells
T1 sequence (Q8TDV5 1-335): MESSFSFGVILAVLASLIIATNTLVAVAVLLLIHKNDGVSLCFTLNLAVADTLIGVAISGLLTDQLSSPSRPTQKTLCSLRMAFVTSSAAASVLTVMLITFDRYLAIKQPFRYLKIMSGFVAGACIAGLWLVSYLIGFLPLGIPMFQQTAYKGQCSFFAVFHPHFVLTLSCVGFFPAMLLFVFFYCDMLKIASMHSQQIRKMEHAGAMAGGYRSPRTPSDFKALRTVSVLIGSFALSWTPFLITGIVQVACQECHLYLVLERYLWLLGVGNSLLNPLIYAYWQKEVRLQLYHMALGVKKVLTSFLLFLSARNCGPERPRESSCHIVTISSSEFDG
Experiment: cAMP accumulation assay (cAMP Gs dynamic HTRF kit)
Assay type: cell-based
Details: CHO-K1 cells stably expressing hGPR119, 4-parameter fit; for Emax: 1 h, % activity normalized to Max/Min controls; for EC50: cAMP accumulation
Protocol: CHO-K1 cells stably expressing human GPR119 (hGPR119) were prepared by transfection of a GPR119-carrying plasmid using Lipofectamine 2000 (following manufacturer instructions). A stable cell line was established using the limiting dilution method with geneticine selection. Assay-ready frozen (ARF) cells were prepared and used throughout the study.
The assay was performed in a 384-well plate format using the cAMP Gs dynamic assay kit from Cisbio. ARF cells expressing hGPR119 were thawed, washed and then resuspended in cAMP stimulation buffer at a cell density of 1.1×10^6 cells/mL. Cells were plated at a density of ˜10,000 cells/well (9 μL/well). Dose response curves for the tested compounds were prepared in a cAMP stimulation buffer, containing 0.1% Tween 80 at 4 fold the final concentration. The compounds were then transferred to the cell plates using BRAVO (3 μL/well) and the plates were incubated for 60 minutes at 37° C./5% CO2. Detection buffer (10 μL, prepared as described in the cAMP Gs dynamic kit) were added to each well, and the plates were incubated at ambient temperature for 1 hr.
RT-FRET was measured using a ClarioSTAR plate reader, calculating the ratio between emissions at 665 nm and 620 nm (HTRF ratio). The HTRF ratio for positive (Max) and negative (Min) controls were used to normalize HTRF data and generate values for % activity. EC50 and Max activity values were determined using a standard 4-parameter fit.

SMILES | Emax | EC50
COCc1cnc(N2CCC(CCCOc3cc(F)c(CC(=O)N4CC[C@@H](CNC[C@H](O)[C@@H](O)[C@H](O)[C@H](O)CO)C4)c(F)c3)CC2)nc1 [Example 135, 2-[2,6-difluoro-4-[3-[1-[5-(methoxymethyl)pyrimidin-2-yl]-4-piperidyl]propoxy]phenyl]-1-[(3S)-3-[[[(2S,3R,4R,5R)-2,3,4,5,6-pentahydroxyhexyl]amino]methyl]pyrrolidin-1-yl]ethanone] | 100 to 130% | ≤ 100 nM
O=C(CC1CN(C(=O)Cc2ccc(OCCCC3CCN(c4ncc(Cl)cn4)CC3)cc2F)C1)NC(CO)(CO)CO [Example 32, 2-[1-[2-[4-[3-[1-(5-chloropyrimidin-2-yl)-4-piperidyl]propoxy]-2-fluoro-phenyl]acetyl]azetidin-3-yl]-N-[2-hydroxy-1,1-bis(hydroxymethyl)ethyl]acetamide] | 100 to 130% | 100 to 1000 nM
CC1(CCCCOc2ccc(CC(=O)N3CC(CNC[C@H](O)[C@@H](O)[C@H](O)[C@H](O)CO)C3)c(F)c2)CCN(c2ncc(Cl)cn2)CC1 [Example 109, 2-[4-[4-[1-(5-chloropyrimidin-2-yl)-4-methyl-4-piperidyl]butoxy]-2-fluoro-phenyl]-1-[3-[[[(2S,3R,4R,5R)-2,3,4,5,6-pentahydroxyhexyl]amino]methyl]azetidin-1-yl]ethanone] | 100 to 130% | 100 to 1000 nM
O=C(Cc1ccc(OCCCC2CCN(c3ncc(Cl)cn3)CC2)cc1F)N1CC(CCNC[C@H](O)[C@@H](O)[C@H](O)[C@H](O)CO)C1 [Example 61] | 100 to 130% | 100 to 1000 nM
COCc1cnc(N2CCC(CCCOc3ccc(CC(=O)N4CC(CNCC[C@@H](O)C[C@@H](O)CC(=O)O)C4)c(F)c3)CC2)nc1 [Example 82, (3R,5R)-7-[[1-[2-[2-fluoro-4-[3-[1-[5-(methoxymethyl)pyrimidin-2-yl]-4-piperidyl]propoxy]phenyl]acetyl]azetidin-3-yl]methylamino]-3,5-dihydroxy-heptanoicacid] | 50 to 100% | 100 to 1000 nM
O=C(Cc1ccc(OCCCC2CCN(c3ncc(Cl)cn3)CC2)cc1F)NCCCCC(=O)NC(CO)CO [Example 23, 5-[[2-[4-[3-[1-(5-chloropyrimidin-2-yl)-4-piperidyl]propoxy]-2-fluoro-phenyl]acetyl]amino]-N-[2-hydroxy-1-(hydroxymethyl)ethyl]pentanamide] | ≥ 130% | 100 to 1000 nM
O=C(Cc1ccc(OCCCC2CCN(c3ncc(Cl)cn3)CC2)cc1F)N1CCC(O)(CNCC(CO)(CO)CO)C1 (stereo not shown) [Example 180, 2-[4-[3-[1-(5-chloropyrimidin-2-yl)-4-piperidyl]propoxy]-2-fluoro-phenyl]-1-[3-hydroxy-3-[[[3-hydroxy-2,2-bis(hydroxymethyl)propyl]amino]methyl]pyrrolidin-1-yl]ethanone] | 100 to 130% | ≤ 100 nM
COCc1cnc(N2CCC(CCCOc3cc(F)c(CC(=O)N4CC(CNC[C@H](O)[C@@H](O)[C@H](O)[C@H](O)CO)C4)c(F)c3)CC2)nc1 [Example 94, 2-(2,6-difluoro-4-(3-(1-(5-(methoxymethyl)pyrimidin-2-yl)piperidin-4-yl)propoxy)phenyl)-1-(3-((((2S,3R,4R,5R)-2,3,4,5,6-pentahydroxyhexyl)amino)methyl)azetidin-1-yl)ethan-1-one] | 100 to 130% | 100 to 1000 nM
O=C(Cc1ccc(OCCCC2CCN(c3ncc(Cl)cn3)CC2)cc1F)NCCCCCC(=O)NC(CO)CO [Example 17, 6-[[2-[4-[3-[1-(5-chloropyrimidin-2-yl)-4-piperidyl]propoxy]-2-fluoro-phenyl]acetyl]amino]-N-[2-hydroxy-1-(hydroxymethyl)ethyl]hexanamide] | ≥ 130% | 100 to 1000 nM
O=C(NCCCCCCS(=O)(=O)O)C1CN(C(=O)Cc2ccc(OCCCC3CCN(c4ncc(Cl)cn4)CC3)cc2F)C1 [Example 175, 6-[[1-[2-[4-[3-[1-(5-chloropyrimidin-2-yl)-4-piperidyl]propoxy]-2-fluoro-phenyl]acetyl]azetidine-3-carbonyl]amino]hexane-1-sulfonic acid] | 100 to 130% | 100 to 1000 nM
COCc1cnc(N2CCC(CCCOc3cc(F)c(CC(=O)N4CC[C@@H](CNC(CO)(CO)CO)C4)c(F)c3)CC2)nc1 [Example 158, 2-[2,6-difluoro-4-[3-[1-[5-(methoxymethyl)pyrimidin-2-yl]-4-piperidyl]propoxy]phenyl]-1-[(3S)-3-[[[2-hydroxy-1,1-bis(hydroxymethyl)ethyl]amino]methyl]pyrrolidin-1-yl]ethanone] | 100 to 130% | ≤ 100 nM

Next, values leading:

Emax | EC50 | SMILES
100 to 130% | 100 to 1000 nM | COCc1cnc(N2CCC([C@H]3C[C@H]3CCOc3ccc(CC(=O)N4CC(CNC[C@H](O)[C@@H](O)[C@H](O)[C@H](O)CO)C4)c(F)c3)CC2)nc1 (mixture of isomers) [Example 97, 2-[2-fluoro-4-[2-[rac-(1S,2R)-2-[1-[5-(methoxymethyl)pyrimidin-2-yl]-4-piperidyl]cyclopropyl]ethoxy]phenyl]-1-[3-[[[(2S,3R,4R,5R)-2,3,4,5,6-pentahydroxyhexyl]amino]methyl]azetidin-1-yl]ethanone]
100 to 130% | ≤ 100 nM | CCc1cnc(N2CCC(CCCOc3cc(F)c(CC(=O)NC(CO)(CO)CO)c(F)c3)CC2)nc1 [Example 7, 2-[4-[3-[1-(5-ethylpyrimidin-2-yl)-4-piperidyl]propoxy]-2,6-difluoro-phenyl]-N-[2-hydroxy-1,1-bis(hydroxymethyl)ethyl]acetamide]
100 to 130% | ≤ 100 nM | COCC1(C(=O)NC[C@H](O)[C@@H](O)[C@H](O)[C@H](O)CO)CCN(C(=O)Cc2ccc(OCCCC3CCN(c4ncc(Cl)cn4)CC3)cc2F)C1 (stereo partly drawn) [Example 136, 1-[2-[4-[3-[1-(5-chloropyrimidin-2-yl)-4-piperidyl]propoxy]-2-fluoro-phenyl]acetyl]-3-(methoxymethyl)-N-[(2S,3R,4R,5R)-2,3,4,5,6-pentahydroxyhexyl]pyrrolidine-3-carboxamide]
100 to 130% | 100 to 1000 nM | O=C(NCCS(=O)(=O)O)C1CN(C(=O)Cc2ccc(OCCCC3CCN(c4ncc(Cl)cn4)CC3)cc2F)C1 [Example 171, 2-[[1-[2-[4-[3-[1-(5-chloropyrimidin-2-yl)-4-piperidyl]propoxy]-2-fluoro-phenyl]acetyl]azetidine-3-carbonyl]amino]ethanesulfonic acid]
≥ 130% | ≤ 100 nM | O=C(CC1CN(C(=O)Cc2c(F)cc(OCCCC3CCN(c4ncc(Cl)cn4)CC3)cc2F)C1)NCC(O)(CO)CO [Example 34, 2-[1-[2-[4-[3-[1-(5-chloropyrimidin-2-yl)-4-piperidyl]propoxy]-2,6-difluoro-phenyl]acetyl]azetidin-3-yl]-N-[2,3-dihydroxy-2-(hydroxymethyl)propyl]acetamide]
100 to 130% | ≤ 100 nM | O=C(Cc1ccc(OCCCC2CCN(c3ncc(Cl)cn3)CC2)cc1F)N1CC[C@@H](CNC[C@H](O)[C@@H](O)[C@H](O)[C@H](O)CO)C1 [Example 98, 2-[4-[3-[1-(5-chloropyrimidin-2-yl)-4-piperidyl]propoxy]-2-fluoro-phenyl]-1-[(3S)-3-[[[(2S,3R,4R,5R)-2,3,4,5,6-pentahydroxyhexyl]amino]methyl]pyrrolidin-1-yl]ethanone]
